According to PMC2806265, “Divergence of allosteric effects of rapacuronium on binding and function of muscarinic receptors” (BMC Pharmacology, 2009):

Experiments:
M3 muscarinic receptor = target: T1, M3 muscarinic receptor (Homo sapiens, UniProt P20309); experiment: biochemical; conditions: for EMAX of ACh on [^35S]GTPγS binding: fold of basal
T1 construct: host or cells: CHO cells, stably transfected; membranes
Protocol: For determination of [^35S]GTPγS binding to G-proteins in membranes a final concentration of 200 pM (M1, M3 and M5 receptors) or 500 pM (M2 and M4 receptors) of [^35S]GTPγS was used. Incubation medium was supplemented with 5 μM (M1, M3 and M5 receptors) or 50 μM (M2 and M4 receptors) GDP. […] Incubation with [^35S]GTPγS was carried out for 20 min and free ligand was removed by filtration as described above. Filtration and washing with ice-cold water lasted for 9 s (wash-aspirate button time).

M2 muscarinic receptor [1] = target: T2, M2 muscarinic receptor (Homo sapiens, UniProt P08172); experiment: [3H]NMS saturation binding
T2 sequence (P08172 1-466): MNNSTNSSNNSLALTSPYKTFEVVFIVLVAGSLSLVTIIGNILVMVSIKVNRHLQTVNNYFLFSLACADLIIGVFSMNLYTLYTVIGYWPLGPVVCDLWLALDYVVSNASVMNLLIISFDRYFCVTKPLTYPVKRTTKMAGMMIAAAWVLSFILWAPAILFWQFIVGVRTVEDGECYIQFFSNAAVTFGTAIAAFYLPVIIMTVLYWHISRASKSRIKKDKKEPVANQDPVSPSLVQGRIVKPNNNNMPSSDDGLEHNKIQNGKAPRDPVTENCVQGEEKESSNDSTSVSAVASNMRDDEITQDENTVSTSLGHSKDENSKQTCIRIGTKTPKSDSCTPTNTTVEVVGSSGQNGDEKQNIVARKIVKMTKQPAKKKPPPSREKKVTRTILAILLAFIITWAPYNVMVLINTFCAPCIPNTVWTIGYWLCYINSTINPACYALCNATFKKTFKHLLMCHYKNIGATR

M2 muscarinic receptor [2] = target: T2, M2 muscarinic receptor; experiment: [3H]ACh saturation binding; design: host or cells: CHO cells, stably transfected; membrane preparation
From the text: BMAX, maximum binding capacity; KD, equilibrium dissociation constant.

T1 sequence (P20309 whole entry): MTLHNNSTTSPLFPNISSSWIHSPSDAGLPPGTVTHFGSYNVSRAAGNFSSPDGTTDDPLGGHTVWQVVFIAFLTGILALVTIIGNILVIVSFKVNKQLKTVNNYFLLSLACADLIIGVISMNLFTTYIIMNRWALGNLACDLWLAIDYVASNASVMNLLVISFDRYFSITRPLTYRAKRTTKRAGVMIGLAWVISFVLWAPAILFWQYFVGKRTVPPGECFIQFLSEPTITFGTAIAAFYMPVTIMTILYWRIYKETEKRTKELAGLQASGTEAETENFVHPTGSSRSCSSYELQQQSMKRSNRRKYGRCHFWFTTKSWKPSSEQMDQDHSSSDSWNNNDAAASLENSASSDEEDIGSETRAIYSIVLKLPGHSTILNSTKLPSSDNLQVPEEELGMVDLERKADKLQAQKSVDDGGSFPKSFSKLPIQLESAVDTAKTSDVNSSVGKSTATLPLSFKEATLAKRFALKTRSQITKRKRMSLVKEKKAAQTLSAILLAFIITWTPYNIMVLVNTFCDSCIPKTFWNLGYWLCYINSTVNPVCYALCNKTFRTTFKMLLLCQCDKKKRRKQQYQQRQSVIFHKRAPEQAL

## C=CC[N+]1([C@H]2C[C@H]3[C@@H]4CC[C@H]5C[C@H](OC(C)=O)[C@@H](N6CCCCC6)C[C@]5(C)[C@H]4CC[C@]3(C)[C@H]2OC(=O)CC)CCCCC1 [rapacuronium]
M3 muscarinic receptor; 0.1 μM rapacuronium
  decrease in ACh EC50: 2 fold
M3 muscarinic receptor; 1 μM rapacuronium
  decrease in ACh EC50: 2 fold
M3 muscarinic receptor; 10 μM rapacuronium
  increase in ACh EC50: about 3 fold
M3 muscarinic receptor; + 0.1 μM rapacuronium
  EMAX of ACh on [^35S]GTPγS binding: 2.78 ± 0.11
M3 muscarinic receptor; + 1 μM rapacuronium
  EMAX of ACh on [^35S]GTPγS binding: 2.52 ± 0.08
M3 muscarinic receptor; + 10 μM rapacuronium
  EMAX of ACh on [^35S]GTPγS binding: 2.12 ± 0.09
M3 muscarinic receptor; rapacuronium alone, normalized to absence of rapacuronium
  EMAX of rapacuronium on [^35S]GTPγS binding: 0.75 ± 0.07
M3 muscarinic receptor; rapacuronium alone, read-out: EC50 of lowering [^35S]GTPγS binding
  EC50: 76 µM
M3 muscarinic receptor; read-out: increase in ACh EMAX, 0.1 μM rapacuronium
  Emax at 0.1 µM: ~60%
M3 muscarinic receptor; read-out: increase in ACh EMAX, 1 μM rapacuronium
  Emax at 1 µM: ~35%
M2 muscarinic receptor [1]; + 10 μM rapacuronium
  BMAX of [^3H]NMS: 1.62 ± 0.14 fmol/μg of protein
M2 muscarinic receptor [1]; + 100 μM rapacuronium
  BMAX of [^3H]NMS: 1.66 ± 0.14 fmol/μg of protein
M2 muscarinic receptor [2]; + 10 μM rapacuronium
  BMAX of [^3H]ACh: 0.74 ± 0.07 fmol/μg of protein
M2 muscarinic receptor [2]; + 100 μM rapacuronium
  BMAX of [^3H]ACh: 0.77 ± 0.08 fmol/μg of protein
